Read-outs that look alike come from different tables or passages of the source.
Columns and labels:
[1] = test system: AtT20/D16v-F2 murine pituitary tumor cells; assay: in vitro cytotoxicity, MTT assay; assay type: cell-based
Procedure: In vitro cytotoxicity: To evaluate the cytotoxicity of conjugates and metabolites, AtT20/D16v-F2 murine pituitary tumor cells obtained from American Type Culture Collection (ATCC, Bethesda, MD, USA) were used. Cell viability was determined using the MTT (3-(4,5-dimethyl thiaz ol-2-yl)-2,5-diphenyltetrazolium bromide) assay. Briefly, cells in DMEM supplemented with 10% FBS, 1% L-glutamine, and 1% penicillin/streptomycin were seeded in 96-well culture plates (3000 cells/well) and incubated overnight in a humidified, 37 °C, 5% CO2 atmosphere to allow for adherence. The following day, cells were treated with serial dilutions of each compound starting at 100 nM for free drugs and 1000 nM for each one of the conjugates and incubated as described for 2 h. 0.1% DMSO served as a control. After incubation, the cells were washed once, media replaced, and incubation continued for further 70 h. At the end of treatment, 5 µL of MTT solution (5 mg/mL in deionized H2O, Sigma #M5655) was added to each well and the cells were incubated for another 2 h. Finally, 100 µL of lysis buffer (10% SDS, 10 mM HCl) was added, and the cells were placed in the incubator overnight for the formazan crystal solubilization. Absorbance at 540 nm was measured using a FLUOstar Omega (BMG Labtech) microplate reader and the growth inhibition ratio was calculated. Blank controls detecting cell-free media absorbance were performed in parallel. Three experimental replicates were used. The half-maximal inhibitory concentration values (IC50) were obtained from viability curves while using GraphPad Prism 6. Cell viability was expressed as percentage relative to the respective control conditions.

[2] = mouse; cited from earlier work
[3] = cited from earlier work
human SSTR2 = biological target: T1, human SSTR2 (Homo sapiens, UniProt P30874); assay: radioligand binding competition assay with SSTR2 membrane extract; conditions: competition with 3-[125I] iodotyrosyl11 Somatostatin 14, CHO-K1-SST2 membranes; for IC50: read-out: Binding Affinity (IC50 in nM)
T1 construct: membrane extract (recombinant CHO-K1-SST2 (NP_001041.1), 25 µL, 0.2 µg); expressed in transfected cells; host or cells: CHO-K1
Procedure: The dilution of test compound (50 µL, maximum final DMSO concentration 3%), radioligand 3-[125I] iodotyrosyl11 Somatostatin 14 (Perkin Elmer, NEX389, 25 µL, 0.4 nM), and membrane extract (recombinant CHO-K1-SST2 (NP_001041.1), 25 µL, 0.2 µg) were successively added to a 96-well plate and then incubated at 25 °C for 60 min. It was filtered over GF/B Unifilter plate (Perkin Elmer, 6005177, pre-soaked in 0.5% PEI for 2 h at room temperature) with a Filtermate Harvester (Perkin Elmer). After rinsing the filters six times with 0.5 mL of ice-cold washing buffer (25 mM HEPES pH 7.4, 5 mM MgCl2, 1 mM CaCl2), 50 µL of Microscint 20 (Packard) was added to the filters and the samples were incubated 15 min on an orbital shaker and then counted with a TopCount™ for 1 min/well. The binding affinity was determined in duplicates by plotting the dose-response data to a nonlinear regression with variable slope.

[4] = plasma stability in murine plasma; assay type: in vitro ADME; conditions: mouse, 37 °C, read-out: Plasma Stability (t1/2 in h) Murine (converted)
Procedure: (§1) Plasma stability: The sample preparation and the metabolic analysis of the conjugates was carried out similarly to the previously described method. Shortly, in a 96-well plate each conjugate and the control compound, procaine (3 mM, stock solution in DMSO) in three replicates were diluted with 250 μL of plasma to give a 3 µM concentration and then incubated at 37 °C. At each sample collecting time point, an aliquot of 30 µL was transferred into a 96-deep well plate and the reaction was stopped with 120 µL of acetonitrile containing 0.1% formic acid and 0.4 µg/mL of warfarin as the internal standard (IS). This mixture was centrifuged at 1100 ×g for 30 min at 4 °C and 50 µL of supernatant was transferred into a clean 96 deep-well plate and diluted with 50 µL of 0.1% formic acid in water. The samples were stored at -80 °C until analyses. Stability was determined based on LC-HRMS analysis of the disappearance of the compound as a function of incubation time, while using area ratio (analyte peak area vs internal standard peak area). The elimination constant k is calculated by plotting mean disappearance values on a semi-logarithmic scale and fitting with a best fit linear regression. The half-life (t1/2) expressed in hours is derived using the equation: t1/2 = ln2/(−k).

[5] = plasma stability in human plasma; assay type: in vitro ADME; conditions: 37 °C, read-out: Plasma Stability (t1/2 in h) Human (converted)
Procedure: as §1

[6] = pharmacokinetics after i.v. injection; assay type: in vivo; conditions: 2.5 mg/kg i.v., heterozygous NCR mice
Procedure: Pharmacokinetics: To evaluate the pharmacokinetic profile of conjugate 8 and its fluorescence-labeled analogue 10, four-weeks-old female heterozygous NCR mice from Charles River were used. Animals were intravenously injected with 2.5 mg/kg (in 2% DMSO in water, dosed at 0.5 mg/mL) of each conjugate. Terminal blood samples were collected via cardiac puncture from animals under deep anesthesia at different time points (5, 15, 30, 60, 180, and 360 min, n = 3). The samples were rapidly transferred to lithium heparin-coated tubes, kept on ice, and subsequently centrifuged at 2000 ×g, 4 °C for 10 min. After centrifugation, plasma was collected and the samples were kept at -20 °C until analyses.

AtT20 tumors = assay: in vivo antitumor efficacy; design: species or system BALB/c nude mice; conditions: 5 mg/kg i.v. once weekly for three weeks, AtT20 tumor-bearing mice
Procedure: (§2) Figure S1. Confocal microscopy images from conjugate 10 in SSTR2 positive cell line […]
(§3) Animal experiments were approved by the Committee for Animal Experiments of the […]
(§4) For in vivo tumor targeting and antitumor efficacy experiments, three million AtT20/D16v-F2 murine pituitary tumor cells in 100 µL PBS/Matrigel (v/v) were xenografted in the right flank of four-weeks-old female BALB/c nude mice (BALB/cAnNRj-Foxn1nu/nu, Janvier Labs). The experiments started around 15 days after implantation, when the animals started to show physical signs of the hormone releasing […]
In vivo antitumor efficacy
Animals bearing AtT20 tumors were randomized in three treatment groups (n=9) and injected intravenously with 5 mg/kg of conjugate 8 in 2% DMSO in water or a mix of […]
Treatment was given once a week for a total of three weeks. Vehicle treatment was used as control. Mice were weighed, and the tumor sizes were monitored with an electronic caliper. Tumor volume was calculated using the ellipsoid formula ν = π/6ꞏxꞏyꞏz.
Figure S2. In vivo antitumor efficacy of conjugate 8 compared to vehicle and unconjugated mix of cryptophycin and octreotide (left), and body weight quantification during treatment (right). […]

cathepsin B degradation = assay type: in vitro ADME, bovine; conditions: acetate buffer/EDTA/L-cysteine without enzyme; acetate buffer pH 5.5/EDTA/L-cysteine, 37 °C, after 6 h; read-out: compound remaining in buffer in the absence of enzyme
Procedure: (§5) Cathepsin B degradation: An aqueous solution of L-cysteine (0.28 M) was diluted 1:10 in acetate buffer/EDTA 1 mM pH 5.5, to achieve a working solution of 28 mM of L-cysteine. This solution was used to dilute cathepsin B from bovine spleen (Sigma Aldrich, C6286) to 1.11 U/mL. The cathepsin B solution was pre-incubated at 37 °C for 15 min and then split into 45 µL aliquots in Eppendorf tubes, with two replicates for each incubation time. 5 µL of substrate solution (50 µM in MeOH/H2O (1:1)) were added to each tube for a final concentration of 5 µM. Tubes corresponding to t0 contained 100 µL of 1% HCOOH in MeOH and they were put in an ice bath to inhibit the reaction. All of the other tubes were incubated at 37 °C in an oscillating thermostatic bath and the reaction was stopped at the following incubation times: 0.25, 0.5, 1, 2, 4, and 6 h, as described for the t0 samples. The samples were then centrifuged for 10 min at 14000 rpm at 4 °C and filtered through regenerated cellulose syringe filters prior to injection in the HPLC-ESI-MS system. Control solutions containing 5 µM substrate in acetate buffer pH 5.5/EDTA 1 mM/L-cysteine 28 mM were also prepared and then incubated up to 6 h at 37 °C in the absence of the enzyme to check the substrate stability under incubation conditions. Substrates and their possible cleavage products (Gly-Pro-Cry-55gly, Cry-55gly, and Cry-55) were quantified via calibration curves that were prepared in acetate buffer/EDTA/L-cysteine in the range 25–5000 nM.

[7] = biological target: T2, cathepsin B from bovine spleen (Bos taurus, UniProt P07688); assay: cathepsin B degradation; assay type: in vitro ADME; conditions: cathepsin B 1 U/mL
T2 construct: cathepsin B from bovine spleen (Sigma Aldrich, C6286); purchased Sigma Aldrich C6286; host or cells: bovine spleen (tissue-derived)
Procedure: as §5

in vivo = conditions: mouse
Source text: Dose escalation experiments determined the maximum tolerated dose of the conjugate.

AtT20 cells = assay: live cell confocal microscopy, conjugate internalization in AtT20 cells; assay type: cell-based, murine
A549 cells = assay: live cell confocal microscopy, conjugate internalization in A549 cells; assay type: cell-based, human; conditions: A549 cells with low levels of SSTR2, 1 µM
AtT20 xenografts = assay: in vivo tumor targeting, whole body imaging; design: species or system nude mice; conditions: 1 mg/kg i.v.
Procedure: Tumor targeting studies: The fluorescence-labeled conjugate 10 (1 mg/kg in 2% DMSO in water) was intravenously injected in nude mice bearing AtT20 tumors. At each time point, whole body imaging was acquired using the Lago optical imaging system (Spectral Instruments Imaging), while mice were under isoflurane anesthesia (2.5%/20% O2).
as §2, §3, §4

[8] = 2 h treatment, wash, further 70 h, MTT, read-out: Cytotoxicity in AtT20 (IC50 in nM)

T1 sequence (P30874 whole entry): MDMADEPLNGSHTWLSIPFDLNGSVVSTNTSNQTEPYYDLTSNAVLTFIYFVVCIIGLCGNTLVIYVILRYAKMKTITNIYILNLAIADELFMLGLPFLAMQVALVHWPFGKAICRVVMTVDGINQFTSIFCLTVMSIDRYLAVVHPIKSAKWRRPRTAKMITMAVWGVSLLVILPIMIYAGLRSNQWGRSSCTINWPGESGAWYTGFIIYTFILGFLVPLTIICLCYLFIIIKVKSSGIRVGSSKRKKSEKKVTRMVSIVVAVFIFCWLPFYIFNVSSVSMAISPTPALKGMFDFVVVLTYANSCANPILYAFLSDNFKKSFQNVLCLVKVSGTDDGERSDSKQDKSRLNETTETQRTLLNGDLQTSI

COc1ccc(C[C@H]2NC(=O)/C=C/C[C@@H]([C@H](C)[C@@H](OC(=O)CNC(=O)[C@@H]3CCCN3C(=O)CN)[C@@H](Cl)c3ccccc3)OC(=O)[C@H](CC(C)C)OC(=O)C(C)(C)CNC2=O)cc1Cl [Gly-Pro-Cry-55gly]
IC50 ([1]; Mus musculus, AtT20, 2 h treatment, wash, further 70 h, MTT, read-out: Cytotoxicity in AtT20 (IC50 in nM)): 6.05 nM

COc1ccc(C[C@H]2NC(=O)/C=C/C[C@@H]([C@H](C)[C@@H](OC(=O)CN)[C@@H](Cl)c3ccccc3)OC(=O)[C@H](CC(C)C)OC(=O)C(C)(C)CNC2=O)cc1Cl [compound 3, cryptophycin-55 glycinate]
IC50 ([1]; Mus musculus, AtT20, read-out: Cytotoxicity in AtT20 (IC50 in nM)): 3.53 nM
Plasma Stability (t1/2 in h) Murine [2]: > 24 [48] h
Plasma Stability (t1/2 in h) Human [3]: > 24 [48] h

COc1ccc(C[C@H]2NC(=O)/C=C/C[C@@H]([C@H](C)[C@@H](OC(=O)CNC(=O)CNC(=O)[C@@H]3CCCN3C(=O)[C@H](CCCNC(N)=O)NC(=O)[C@@H](NC(=O)CCOCCOCCOCCOCCn3cc(CCC(=O)N[C@H](Cc4ccccc4)C(=O)N[C@H]4CSSC[C@@H](C(=O)N[C@H](CO)[C@@H](C)O)NC(=O)[C@H]([C@@H](C)O)NC(=O)[C@H](CCCCN)NC(=O)[C@@H](Cc5c[nH]c6ccccc56)NC(=O)[C@H](Cc5ccccc5)NC4=O)nn3)C(C)C)[C@@H](Cl)c3ccccc3)OC(=O)[C@H](CC(C)C)OC(=O)C(C)(C)CNC2=O)cc1Cl [compound 7]
IC50 (human SSTR2): 0.6 nM
IC50 [1, 8]: 51.2 nM
half-life at 3 µM [4]: 0.5 h
half-life at 3 µM [5]: 23 h

COc1ccc(C[C@H]2NC(=O)/C=C/C[C@@H]([C@H](C)[C@@H](OC(=O)CNC(=O)[C@@H]3CCCN3C(=O)CNC(=O)[C@H](CCCNC(N)=O)NC(=O)[C@@H](NC(=O)CCOCCOCCOCCOCCn3cc(CCC(=O)N[C@H](Cc4ccccc4)C(=O)N[C@H]4CSSC[C@@H](C(=O)N[C@H](CO)[C@@H](C)O)NC(=O)[C@H]([C@@H](C)O)NC(=O)[C@H](CCCCN)NC(=O)[C@@H](Cc5c[nH]c6ccccc56)NC(=O)[C@H](Cc5ccccc5)NC4=O)nn3)C(C)C)[C@@H](Cl)c3ccccc3)OC(=O)[C@H](CC(C)C)OC(=O)C(C)(C)CNC2=O)cc1Cl [compound 8]
IC50 (human SSTR2): 1.3 nM
IC50 [1, 8]: 8.37 nM
half-life at 3 µM [4]: > 24 h
half-life at 3 µM [5]: 24 h
area under the curve (AUC), comparison of 8 with 10 [6]: higher
half-life ([6]; female, mouse, plasma, iv, read-out: circulatory half-life): 1.73 h
antitumor efficacy (tumor volume) (AtT20 tumors): no therapeutic benefit
remaining at 6 h, 5 µM (cathepsin B degradation): 90%
cleavage by cathepsin B ([7]; 5 µM compound, 37 °C): readily cleaved
release of cryptophycin-55 glycinate by self-immolation after cleavage ([7]; up to 6 h): no cryptophycin-55 glycinate (3) was found
MTD (in vivo): ≥ 10 mg/kg

CC(C)[C@H](NC(=O)CCOCCOCCOCCOCCn1cc(CCC(=O)N[C@H](Cc2ccccc2)C(=O)N[C@H]2CSSC[C@@H](C(=O)N[C@H](CO)[C@@H](C)O)NC(=O)[C@H]([C@@H](C)O)NC(=O)[C@H](CCCCN)NC(=O)[C@@H](Cc3c[nH]c4ccccc34)NC(=O)[C@H](Cc3ccccc3)NC2=O)nn1)C(=O)N[C@@H](CCCNC(N)=O)C(=O)NCC(=O)N1CCC[C@H]1C(=O)NCCCCCCNC(=O)CCCCC[N+]1=C(/C=C/C=C/C=C2N(C)c3ccc4ccccc4c3C2(C)C)C(C)(C)c2c1ccc1ccccc21 [compound 10]
Binding Affinity (IC50 in nM) (human SSTR2): low nanomolar IC50
internalization of the conjugate with excess free ligand (AtT20 cells; AtT20 cells, 100-fold excess of free octreotide): could be efficiently competed
internalization of the conjugate (AtT20 cells; SSTR2 expressing AtT20 cells, 1 µM, after 10 min): effective internalization
internalization of the conjugate (A549 cells): no internalization was observed
accumulation in the tumor (AtT20 xenografts; AtT20 xenografts): preferential accumulation
duration of detection in tumor (AtT20 xenografts; tumors around 50 mm^3): up to seven

— PMC6571972 (Pharmaceutics, 2019)
